Entries after “also recorded” stand apart in the source; their conditions may differ.
Molecular target: T1, human GLUT5 (Homo sapiens, UniProt P22732)
T1 construct: Full length DNA was subcloned into pFastBac1 (Life Technologies) vector with a N-terminal hexahistidine tag; hexahistidine (N); made in house; host or cells: Sf21 insect cells (baculovirus, pFastBac1)
T1 sequence (P22732 1-501): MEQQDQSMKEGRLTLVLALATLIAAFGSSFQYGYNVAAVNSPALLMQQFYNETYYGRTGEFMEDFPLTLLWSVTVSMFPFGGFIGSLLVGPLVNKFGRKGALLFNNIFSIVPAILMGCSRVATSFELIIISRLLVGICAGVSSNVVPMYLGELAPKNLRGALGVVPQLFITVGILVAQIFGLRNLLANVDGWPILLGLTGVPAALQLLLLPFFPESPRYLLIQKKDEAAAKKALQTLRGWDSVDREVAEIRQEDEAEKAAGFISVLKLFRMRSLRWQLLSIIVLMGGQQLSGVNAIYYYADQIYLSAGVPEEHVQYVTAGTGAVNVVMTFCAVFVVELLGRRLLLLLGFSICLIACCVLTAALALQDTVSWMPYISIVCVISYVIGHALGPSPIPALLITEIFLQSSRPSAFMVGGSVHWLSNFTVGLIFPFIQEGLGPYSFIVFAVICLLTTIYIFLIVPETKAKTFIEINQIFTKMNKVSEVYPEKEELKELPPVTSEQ
Assay: Fructose entrance counter-flow transport in GLUT5 proteoliposomes
Type: biochemical
Conditions: for effect on GLUT5 fructose transport: 2 mM compound, one minute
Procedure: cDNAs of GLUT1, 3, 4 and 5 were purchased from Open Biosystems (GE Healthcare). cDNAs of GLUT2 was a gift from Prof. Graeme Bell at University of Chicago. Full length DNA was subcloned into pFastBac1 (Life Technologies) vector with a N-terminal hexahistidine tag. Bacmids were generated in DH10Bac E. coli cells (Life Technologies). Baculoviruses were produced using Cellfectin II Reagent and amplified in Sf21 insect cells (Life Technologies). Cells were maintained at 26° C., and P1 (10^6 pfu/mL) was collected from infected cells after 72 hours. SF21 cells were propagated in HyClone SFX-Insect media (GE Healthcare), supplemented with 5% fetal bovine serum (Biowest), 4.8 mM glutamine, antibiotics (100 units/mL Penicillin G and 100 μg/mL streptomycin sulfate) and amphotericin B (2.5 μg/mL). For recombinant protein expression, SF21 cells in suspension culture at 2×10^6 cells/ml were infected with P3 viral stock (10^8 pfu/mL), at an MOI of 1.0 pfu/cell. Four days after viral infection, cells from 1 L culture were collected by centrifugation at 2,000 g and 25 °C. The cell pellet was resuspended in 120 mL of 50 mM sodium phosphate (NaPi) (pH 7.5), 5% (v/v) glycerol, 200 mM sodium chloride (buffer A), with protease inhibitors (1 mM AEBSF, 10 μM E-64, 10 μM pepstatin A, 1 μM Aprotinin, 20 μM Bestatin, 20 μM Leupeptin), at 4° C., and disrupted by sonication (Branson Ultrasonic). n-Dodecyl-β-D-maltopyranoside (DDM, EMD chemicals) was added to a final concentration of 1% (w/v) in the broken cell solution, and the mixture was incubated at 4° C. with stirring, for 4 hours. The solubilized protein solution was clarified by ultracentrifugation at 200,000 g and 4° C. for 1 hour, and the supernatant was loaded onto the Ni-NTA resin (Novagen) and washed with buffer containing 50 mM NaPi (pH 7.5), 500 mM NaCl, 5-20 mM imidazole, 5% (v/v) glycerol and 0.05% (w/v) DDM. GLUT1 (or GLUT2-5, wild-type or mutants) was eluted with buffer A, containing 300 mM imidazole and 0.05% DDM (w/v). To generate DNA for mutant proteins, site-directed mutagenesis was performed on the pFastBac1 plasmid constructs of wild-type proteins and verified by DNA sequencing^37. Mutant proteins were expressed and purified in the same manner as wild-type proteins with no modifications.
Proteoliposomes were generated according to the protocol of^16,38 with minor modifications. Liposomes were made from a 95%/5% mix of soy phosphatidylcholine and cholesterol (Avanti Polar Lipids). Prepared liposomes were destabilized with 4 mM Triton X-100 and mixed with purified protein in a 100:1 (w/w) ratio in 100 mM KPi (pH 7.5), 20% (v/v) glycerol, 200 mM glucose for GLUT1-4 and GLUT1F379H or fructose for GLUT5 (wild-type and H387F mutant) and GLUT2. Detergent was removed by several additions of SM2 BioBeads (BioRad) and incubated overnight at 4° C. […]
For the entrance counterflow transport in proteoliposomes, the assay was started by the addition of 5 μL proteoliposomes solution (OD600 nm ˜30) to 200 μL, assay solution, containing 10 μM ^14C-radiolabeled glucose (for GLUT1 wild-type or F379H mutant and GLUT2-4) or fructose (for GLUT5 wild-type or H387F mutant and GLUT2) (Moravek Biochemicals) in 100 mM KPi buffer at pH 7.5. After one minute (or different specified time points when the time-dependent counter-flow transport activity was measured), the transport was stopped with ice-chilled quench buffer [0.1 M KPi (pH 5.5) and 0.1 M lithium chloride]. […]

| Compound | inhibitory activity against GLUT5 in screen of 175 purchased compounds (1 mM compound, fructose transport in proteoliposomes) | effect on GLUT5 fructose transport (proteoliposomes) | IC50 (proteoliposomes, 10 μM C14-fructose, measured one minute after transport initiation, read-out: IC50 of inhibition of GLUT5 fructose transport) [µM] |
| --- | --- | --- | --- |
| CS(=O)(=O)c1ccc(Nc2ccc3c(c2)OCO3)c([N+](=O)[O-])c1 [MSNBA, N-[4-(methylsulfonyl)-2-nitrophenyl]-1,3-benzodioxol-5-amine] | inhibitor of GLUT5; also recorded: inhibitory activity | completely abolished | 100 ± 30 |
| C=C1[C@@H](C)[C@H]2[C@H](Cc3ccccc3)NC(=O)[C@]23OC(=O)/C=C/[C@H](O)CCC[C@@H](C)C/C=C/[C@H]3[C@@H]1O [cytochalasin B, reference compound] | – | did not alter | – |
| O=C(CCc1ccc(O)cc1)c1c(O)cc(O)cc1O [phloretin, reference compound] | – | did not alter | – |

Source: patent US10822325B2, “Human GLUT5 specific inhibitors and methods of treatment” (UNM RAINFOREST INNOVATIONS, priority 2015, dated 2020)
